Article PMC3343204 (Clinical Cancer Research, 2012)

Tests used:
MPNST cells = assay: Colony formation assay; type: cell-based, human; details: for IC50: Homo sapiens, 24 h
CDK4 = details: cited from earlier work
CDK6 = details: cited from earlier work
[1] = Flavopiridol plasma pharmacokinetics in phase I trial; type: in vivo, human
CDK9 = details: cited from earlier work
[2] = patients, cited from earlier work
[3] = human plasma; cited from earlier work
CDK2 = details: cited from earlier work
[4] = tested on: dedifferentiated liposarcoma cell lines, with amplified CDK4; assay: Sensitivity of liposarcoma cell lines; type: cell-based, human; details: prior observations, data not shown

SMILES	IC50 (MPNST cells) [µM]	inhibition of CDK4 (CDK4)	inhibition of CDK6 (CDK6)	colony formation (percentage of untreated controls) (MPNST cells; MPNST cells, flavopiridol alone 150 nM 24 hours, colonies after 10 days) [%]	time point at which Cmax was observed ([1]; first time point analyzed in each schedule) [h]	Cmax ([1]; human, plasma, intravenous, Mean Cmax, cycle 1, cohort 8 (doxorubicin 60, flavopiridol 90 (50/40) mg/m^2), n 4) [µM]	inhibition of CDK9 (CDK9)	MTD, single agent bolus schedule ([2]; approximate) [mg/m^2]	MTD, single agent divided dose flavopiridol therapy ([2]; bolus followed by infusion) [mg/m^2]	protein binding in plasma [3] [%]	inhibition of CDK2 (CDK2)	sensitivity to flavopiridol [4]
COc1cccc2c1C(=O)c1c(O)c3c(c(O)c1C2=O)C[C@@](O)(C(=O)CO)C[C@@H]3O[C@H]1C[C@H](N)[C@H](O)[C@H](C)O1 [doxorubicin]	0.015											
CN1CC[C@H](c2c(O)cc(O)c3c(=O)cc(-c4ccccc4Cl)oc23)[C@H](O)C1 [flavopiridol]	0.15	nanomolar concentrations	nanomolar concentrations	59	0.5	3.33	nanomolar concentrations	~70	90	90	nanomolar concentrations	highly sensitive
